Experimental data from patent US10195185B2, “3-(1H-imidazo[4,5-C]pyridin-2-yl)-1H-pyrazolo[4,3-B]pyridines and therapeutic uses thereof” (Samumed, LLC, priority 2015, dated 2019).

How the values were obtained:
Assay type in all cases: cell-based
[1] = tested on: Wnt activity (Wnt-responsive human Sp5 promoter, TCF/LEF binding sites) in SW480 colon carcinoma cells; experiment: Wnt activity screening assay: Sp5-Luc luciferase reporter gene in SW480 cells; conditions: for EC50: 10-point dose-response from 10 μM, incubated overnight; for inhibition at 10 µM: given for EC50 of >10 μM, read-out: percent inhibition at 10 μM
From the text: The screening assay for Wnt activity is described as follows. Reporter cell lines can be generated by stably transducing cancer cell lines (e.g., colon cancer) or primary cells (e.g., IEC-6 intestinal cells) with a lentiviral construct that includes a Wnt-responsive promoter driving expression of the firefly luciferase gene.
SW480 colon carcinoma cells were transduced with a lentiviral vector expressing luciferase with a human Sp5 promoter consisting of a sequence of eight TCF/LEF binding sites. SW480 cells stably expressing the Sp5-Luc reporter gene and a hygromycin resistance gene were selected by treatment with 150 μg/mL of hygromycin for 7 days. These stably transduced SW480 cells were expanded in cell culture and used for all further screening activities. Each compound was dissolved in DMSO as a 10 mM stock and used to prepare compound source plates. Serial dilution (1:3, 10-point dose-response curves starting from 10 μM) and compound transfer was performed using the ECHO 550 (Labcyte, Sunnyvale, Calif.) into 384-well white solid bottom assay plates (Greiner Bio-One) with appropriate DMSO backfill for a final DMSO concentration of 0.1%. For Sp5-Luc reporter gene assays, the cells were plated at 4,000 cells/well in 384-well plates with medium containing 1% fetal bovine serum and incubated overnight at 37° C. and 5% CO2. Following incubation, 20 μl of BrightGlo luminescence reagent (Promega) was added to each well of the 384-well assay plates. The plates were placed on an orbital shaker for 2 min and then luminescence was quantified using the Envision (Perkin Elmer) plate reader. Readings were normalized to DMSO only treated cells, and normalized activities were utilized for EC50 calculations using the dose-response log (inhibitor) vs. response-variable slope (four parameters) nonlinear regression feature available in GraphPad Prism 5.0 (or Dotmatics). For EC50 of >10 μM, the percent inhibition at 10 μM is provided.

[2] = tested on: IL-6 in human monocyte cell line (THP-1 cells); experiment: IL-6 inhibition in LPS-stimulated THP-1 cells (HTRF); conditions: IL-6 in LPS-stimulated THP-1 cells; for EC50: HTRF; for inhibition at 10 µM: read-out: percent inhibition in brackets beside EC50 >10 μM
Protocol: Human monocyte cell line (THP-1 cells; Catalog # TIB-202, ATCC, Manassas, Va.) were cultured in Roswell Park Memorial Institute (RPMI) 1640 Medium (Catalog #21870-100, Buffalo, N.Y.) with 1% L-glutamine, 1% HEPES, 1% Sodium Pyruvate, 2% Sodium Bicarbonate supplemented with 100 units/mL penicillin, 50 μg/mL streptomycin, 2-mercaptoethanol (0.05 mM) [basal medium] and 10% fetal bovine serum (Catalog #16140089, Life Technologies, Carlsbad, Calif.) at 37° C. and 5% CO2.
THP-1 cells were cultured in basal media with 1% FBS for 24 hours before the start of the assay. Each compound was dissolved in DMSO as a 10 mM stock and used to prepare compound source plates. Serial dilution (1:3, 10-point dose-response curves starting from 10 μM) and compound transfer was performed using the ECHO 550 (Labcyte, Sunnyvale, Calif.) into 384-well white low volume assay plates (Greiner Bio-One) with appropriate DMSO backfill for a final DMSO concentration of 0.1%. THP-1 cells were plated at 5000 cells/well in the 384-well plates and incubated at 37° C. for 2 h. 500 ng/mL of LPS was added after 2 hours and cells were incubated for another 22 hours at 37° C. Plates were spun in a centrifuge for 1 minute at […] and a mixture of anti-IL6 XL665, and anti-IL6 Cryptate diluted in reconstitution buffer (Cisbio Inc.) was added to each well. Following incubation for 3 hrs at room temperature, Homogeneous Time-Resolved Fluorescence (HTRF) was measured using the Envision (Perkin Elmer) at 665 nm and […]. The ratio of fluorescence at 665 nm to 620 nm was used as a readout for IL6 quantification. All samples were processed in duplicate. Readings were normalized to DMSO treated cells and normalized activities were utilized for EC50 calculations using the dose-response log (inhibitor) vs. response-variable slope (four parameters) nonlinear regression feature available in GraphPad Prism 5.0 (or Dotmatics). For EC50 of >10 μM, the percent inhibition at 10 μM is provided.

SW480 colon cancer cells = experiment: Cell viability assay (CellTiter-Blue), four days; conditions: Homo sapiens, 96 h; for inhibition at 10 µM: read-out: percent inhibition at 10 μM (given for EC50 of >10 μM); for EC50: CellTiter-Blue cell viability
Protocol: Representative compounds were screened using the following assay procedure to assess the effect on cell viability as described below.
Each compound was dissolved in DMSO as a 10 mM stock and used to prepare compound source plates. Serial dilution (1:3, 8-point dose-response curves from 10 μM to 0.0045 μM) and compound transfer was performed using the ECHO 550 (Labcyte, Sunnyvale, Calif.) into 96-well clear bottom, black-walled plates (Corning-Costar).
Approximately 2×10^3 SW480 colon cancer cells were seeded into each well and allowed to incubate in the presence or absence of compound for four days at 37° C./5% CO2. Eight replicates of DMSO-treated cells served as controls and cells treated with compound were performed in duplicate.
After incubation, 20 μL of CellTiter-Blue (Promega) was added to each well allowed to incubate for approximately 3 hours. This reagent was a buffered solution which contains resazurin, metabolically active cells were able to reduce rezarurin (blue) into resorufin (pink) which was highly fluorescent. This measured fluorescence was used as a readout for cell viability.
After incubation, the plates were read at Ex 560 nm Em 590 nm (Cytation 3, BioTek). Dose-response curves were generated and EC50 concentration values were calculated using non-linear regression curve fit in the GraphPad Prism (San Diego, Calif.) or Dotmatics' Studies Software (Bishops Stortford, UK). For EC50 of >10 μM, the percent inhibition at 10 μM is provided.

| EC50 [1] [µM] | EC50 [2] [µM] | EC50 (SW480 colon cancer cells) [µM] | Compound | inhibition at 10 µM [1] [%] | inhibition at 10 µM [2] [%] | inhibition at 10 µM (SW480 colon cancer cells) [%] |
| --- | --- | --- | --- | --- | --- | --- |
| > 10 | > 10 | > 10 | O=C(Nc1cncc(-c2ccc3[nH]nc(-c4nc5c(-c6ccccn6)nccc5[nH]4)c3n2)c1)c1ccccc1 [Compound 151, N-(5-(3-(4-(Pyridin-2-yl)-1H-imidazo[4,5-c]pyridin-2-yl)-1H-pyrazolo[4,3-b]pyridin-5-yl)pyridin-3-yl)benzamide] | 9.9 | 28.9 | 1.6 |
| > 10 | > 10 | 4.76 | CCNCc1cncc(-c2ccc3[nH]nc(-c4nc5c(-c6ccccn6)nccc5[nH]4)c3n2)c1 [Compound 146, N-((5-(3-(4-(Pyridin-2-yl)-1H-imidazo[4,5-c]pyridin-2-yl)-1H-pyrazolo[4,3-b]pyridin-5-yl)pyridin-3-yl)methyl)ethanamine] | 35.5 | 6.7 |  |
| > 10 | > 10 | > 10 | Cn1cc(-c2ccc3[nH]nc(-c4nc5c(N6CCCCC6)nccc5[nH]4)c3n2)c(CO)n1 [Compound 1133, (1-Methyl-4-(3-(4-(piperidin-1-yl)-1H-imidazo[4,5-c]pyridin-2-yl)-1H-pyrazolo [4,3-b]pyridin-5-yl)-1H-pyrazol-3-yl)methanol] | 49.6 | 0 | 28.2 |
| 0.384 | > 10 | > 10 | Fc1ccccc1-c1nccc2[nH]c(-c3n[nH]c4ccc(-c5ccccn5)nc34)nc12 [Compound 84, 3-(4-(2-Fluorophenyl)-1H-imidazo[4,5-c]pyridin-2-yl)-5-(pyridin-2-yl)-1H-pyrazolo[4,3-b]pyridine] |  | 27.2 | 0 |
| 1.04 | > 10 | > 10 | Cc1ccc(-c2nccc3[nH]c(-c4n[nH]c5ccc(-c6cncc(OC7CCCCC7)c6)nc45)nc23)s1 [Compound 735, 5-(5-(Cyclohexyloxy)pyridin-3-yl)-3-(4-(5-methylthiophen-2-yl)-1H-imidazo[4,5-c]pyridin-2-yl)-1H-pyrazolo[4,3-b]pyridine] |  | 18.8 | 0 |
| > 10 | > 10 | > 10 | c1cc2[nH]c(-c3n[nH]c4ccc(-c5cncc(OC6CCNCC6)c5)nc34)nc2cn1 [Compound 656, 3-(1H-Imidazo[4,5-c]pyridin-2-yl)-5-(5-(piperidin-4-yloxy)pyridin-3-yl)-1H-pyrazolo[4,3-b]pyridine] | 15.4 | 41.3 | 10.9 |
| 0.897 | > 10 | 2.15 | O=C(Nc1cncc(-c2ccc3[nH]nc(-c4nc5c(-c6ccc(Cl)s6)nccc5[nH]4)c3n2)c1)C1CCC1 [Compound 1056, N-(5-(3-(4-(5-Chlorothiophen-2-yl)-1H-imidazo[4,5-c]pyridin-2-yl)-1H-pyrazolo[4,3-b]pyridin-5-yl)pyridin-3-yl)cyclobutanecarboxamide] |  | 0 |  |
| 4.41 | 7.22 | > 10 | CN(C)CCNc1cc(F)cc(-c2nccc3[nH]c(-c4n[nH]c5ccc(-c6cncc(OCCN7CCCC7)c6)nc45)nc23)c1 [Compound 786, N^1-(3-Fluoro-5-(2-(5-(5-(2-(pyrrolidin-1-yl)ethoxy)pyridin-3-yl)-1H-pyrazolo[4,3-b]pyridin-3-yl)-1H-imidazo[4,5-c]pyridin-4-yl)-5phenyl)-N^2,N^2-dimethylethane-1,2-diamine] |  |  | 15.9 |
| > 10 | > 10 | > 10 | CN1CCN(c2nccc3[nH]c(-c4n[nH]c5ccc(-c6cncc(N)c6)nc45)nc23)CC1 [Compound 227, 5-(3-(4-(4-Methylpiperazin-1-yl)-1H-imidazo[4,5-c]pyridin-2-yl)-1H-pyrazolo[4,3-b]pyridin-5-yl)pyridin-3-amine] | 15.3 | 32.3 | 0 |
| 1.11 | > 10 | 1.08 | Fc1ccccc1-c1nccc2[nH]c(-c3n[nH]c4ccc(-c5cncc(CNCC6CCCC6)c5)nc34)nc12 [Compound 81, 1-Cyclopentyl-N-((5-(3-(4-(2-fluorophenyl)-1H-imidazo[4,5-c]pyridin-2-yl)-1H-pyrazolo[4,3-b]pyridin-5-yl)pyridin-3-yl)methyl)methanamine] |  | 54.6 |  |
| 0.206 | 1.33 | 0.638 | Cc1ccncc1-c1ccc2[nH]nc(-c3nc4c(-c5ccsc5)nccc4[nH]3)c2n1 [Compound 285, 5-(4-Methylpyridin-3-yl)-3-(4-(thiophen-3-yl)-1H-imidazo[4,5-c]pyridin-2-yl)-1H-pyrazolo[4,3-b]pyridine] |  |  |  |
| > 10 | > 10 | > 10 | COc1cccc(-c2nccc3[nH]c(-c4n[nH]c5ccc(-c6cncc(NC(=O)CC(C)(C)C)c6)nc45)nc23)c1 [Compound 1006, N-(5-(3-(4-(3-methoxyphenyl)-1H-imidazo[4,5-c]pyridin-2-yl)-1H-pyrazolo [4,3-b]pyridin-5-yl)pyridin-3-yl)-3,3-dimethylbutanamide] | 16.6 | 32.3 | 0 |
| > 10 | > 10 | > 10 | Oc1cncc(-c2ccc3[nH]nc(-c4nc5cnccc5[nH]4)c3n2)c1 [Compound 661, 5-(3-(1H-Imidazo[4,5-c]pyridin-2-yl)-1H-pyrazolo[4,3-b]pyridin-5-yl) pyridin-3-ol] | 10.7 | 31.3 | 13.5 |
| 0.745 | > 10 | 1.57 | COc1cncc(-c2ccc3[nH]nc(-c4nc5c(-c6ccoc6)nccc5[nH]4)c3n2)c1 [Compound 692, 3-(4-(Furan-3-yl)-1H-imidazo[4,5-c]pyridin-2-yl)-5-(5-methoxypyridin-3-yl)-1H-pyrazolo[4,3-b]pyridine] |  | 44 |  |
